Measured values taken from patent US20250376461A1, “INDAZOLE DERIVATIVES FOR TREATING TRPM3-MEDIATED DISORDERS” (Katholieke Universiteit Leuven, priority 2022, published 2025).

molecular target: T1, mouse TRPM3α2 (mTRPM3) ion channel (Mus musculus, UniProt J9SQF3); assay: TRPM3 ion channel driven Ca2+ uptake, Fluo-4 AM assay, mTRPM3alpha2 overexpressing flip-in HEK293 cells stimulated with pregnenolone sulfate (50 μM); assay type: cell-based; conditions: mTRPM3 overexpressing HEK293 cells stimulated with pregnenolone sulfate (50 μM), activity ranges A, B, C
T1 construct: expressed in transfected cells; host or cells: flip-in HEK293
T1 sequence (J9SQF3 1-1709 isoform J9SQF3-12): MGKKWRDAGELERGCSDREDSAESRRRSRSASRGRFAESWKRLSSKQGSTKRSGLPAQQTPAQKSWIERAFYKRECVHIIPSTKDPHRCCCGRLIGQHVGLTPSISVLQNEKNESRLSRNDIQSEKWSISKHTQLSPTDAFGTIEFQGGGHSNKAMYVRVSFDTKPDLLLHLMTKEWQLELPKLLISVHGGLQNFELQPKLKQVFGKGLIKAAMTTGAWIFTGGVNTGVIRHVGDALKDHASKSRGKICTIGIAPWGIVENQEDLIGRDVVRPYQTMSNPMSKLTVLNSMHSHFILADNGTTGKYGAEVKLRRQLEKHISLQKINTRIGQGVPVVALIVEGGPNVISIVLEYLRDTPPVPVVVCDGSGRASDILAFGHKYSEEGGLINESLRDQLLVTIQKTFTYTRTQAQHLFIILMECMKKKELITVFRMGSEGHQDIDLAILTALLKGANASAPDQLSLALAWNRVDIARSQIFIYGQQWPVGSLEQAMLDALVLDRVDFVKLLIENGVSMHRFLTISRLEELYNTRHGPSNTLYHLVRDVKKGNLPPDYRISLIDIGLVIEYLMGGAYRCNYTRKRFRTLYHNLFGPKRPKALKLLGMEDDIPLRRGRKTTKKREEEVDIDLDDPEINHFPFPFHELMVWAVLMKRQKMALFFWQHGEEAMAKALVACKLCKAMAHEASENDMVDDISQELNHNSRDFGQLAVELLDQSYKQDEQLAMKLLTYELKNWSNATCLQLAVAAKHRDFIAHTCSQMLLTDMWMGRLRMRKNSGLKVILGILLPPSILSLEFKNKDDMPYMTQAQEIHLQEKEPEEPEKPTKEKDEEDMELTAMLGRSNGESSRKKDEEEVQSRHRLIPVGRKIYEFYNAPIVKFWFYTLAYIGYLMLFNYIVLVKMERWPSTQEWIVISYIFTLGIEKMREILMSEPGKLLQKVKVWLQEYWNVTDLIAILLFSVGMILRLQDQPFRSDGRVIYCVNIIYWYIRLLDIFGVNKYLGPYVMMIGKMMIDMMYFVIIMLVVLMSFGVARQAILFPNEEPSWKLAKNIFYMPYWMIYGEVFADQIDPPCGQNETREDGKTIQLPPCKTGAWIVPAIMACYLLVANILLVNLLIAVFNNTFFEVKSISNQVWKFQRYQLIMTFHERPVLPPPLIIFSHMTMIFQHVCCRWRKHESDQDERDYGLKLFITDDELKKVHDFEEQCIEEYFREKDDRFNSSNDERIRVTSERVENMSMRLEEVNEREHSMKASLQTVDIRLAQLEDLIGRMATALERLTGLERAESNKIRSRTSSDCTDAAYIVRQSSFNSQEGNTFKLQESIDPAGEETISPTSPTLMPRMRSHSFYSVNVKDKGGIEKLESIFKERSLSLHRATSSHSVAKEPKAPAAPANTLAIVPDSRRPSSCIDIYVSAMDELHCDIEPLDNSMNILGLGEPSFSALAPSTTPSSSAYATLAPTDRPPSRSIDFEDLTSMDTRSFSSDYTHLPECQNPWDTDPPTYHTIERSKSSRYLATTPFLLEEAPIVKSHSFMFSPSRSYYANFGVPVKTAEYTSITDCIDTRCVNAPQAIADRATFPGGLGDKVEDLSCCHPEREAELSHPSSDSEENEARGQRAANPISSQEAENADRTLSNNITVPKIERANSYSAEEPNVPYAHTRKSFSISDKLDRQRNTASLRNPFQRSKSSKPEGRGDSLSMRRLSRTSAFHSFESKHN
Outline: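 Flip-in HEK293 cells overexpressing mTRPM3α2, loaded with Fluo-4 AM, added at ±2000 cells/well to plates holding compound plus 50 μM pregnenolone sulfate in Ca2+-containing Krebs buffer. Fluorescence (ex 485/em 535 nm) read immediately. Percent inhibition normalised between vehicle and positive-control inhibitor; IC50 derived.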

SMILES	IC50 [µM]
CN(C)C1(CNC(=O)c2c3cc(OCc4cccnc4C(F)(F)F)ccc3nn2C)CCC1 [Cpd 042, N-{[1-(dimethylamino)cyclobutyl]methyl}-2-methyl-5-{[2-(trifluoromethyl)pyridin-3-yl]methoxy}-2H-indazole-3-carboxamide]	1 to 20
Cc1ncsc1COc1ccc2nn(C)c(C(=O)NC3(CO)CCC3)c2c1 [Cpd 043, N-[1-(hydroxymethyl)cyclobutyl]-2-methyl-5-[(4-methyl-1,3-thiazol-5-yl)methoxy]-2H-indazole-3-carboxamide]	1 to 20
CN(C)C1(CNC(=O)c2c3cc(OCc4ccnn4C)ccc3nn2C)CCC1 [Cpd 046, N-{[1-(dimethylamino)cyclobutyl]methyl}-2-methyl-5-[(1-methyl-1H-pyrazol-5-yl)methoxy]-2H-indazole-3-carboxamide]	1 to 20
Cc1ncsc1COc1ccc2nn(C)c(C(=O)NC3(CO)CC3)c2c1 [Cpd 047, N-[1-(hydroxymethyl)cyclopropyl]-2-methyl-5-[(4-methyl-1,3-thiazol-5-yl)methoxy]-2H-indazole-3-carboxamide]	1 to 20
Cc1ncsc1COc1ccc2nn(C)c(C(=O)NC3(CCO)CCC3)c2c1 [Cpd 048, N-[1-(2-hydroxyethyl)cyclobutyl]-2-methyl-5-[(4-methyl-1,3-thiazol-5-yl)methoxy]-2H-indazole-3-carboxamide]	1 to 20
Cn1nccc1COc1ccc2nn(C)c(C(=O)NCC(C)(C)N3CCOCC3)c2c1 [Cpd 049, 2-methyl-5-[(1-methyl-1H-pyrazol-5-yl)methoxy]-N-[2-methyl-2-(morpholin-4-yl)propyl]-2H-indazole-3-carboxamide]	> 20
Cn1nccc1COc1ccc2nn(C)c(C(=O)NC3CCN(CC(F)(F)F)C3)c2c1 (stereo not drawn) [Cpd 050, 2-methyl-5-[(1-methyl-1H-pyrazol-5-yl)methoxy]-N-[1-(2,2,2-trifluoroethyl)pyrrolidin-3-yl]-2H-indazole-3-carboxamide]	1 to 20
Cc1ncsc1COc1ccc2nn(C)c(C(=O)NCCN3CCOC3=O)c2c1 [Cpd 053, 2-methyl-5-[(4-methyl-1,3-thiazol-5-yl)methoxy]-N-[2-(2-oxo-1,3-oxazolidin-3-yl)ethyl]-2H-indazole-3-carboxamide]	> 20
Cn1nc2ccc(OCc3cccnc3C(F)(F)F)cc2c1C(=O)NCC1CCC(=O)N1 (stereo not drawn) [Cpd 054, 2-methyl-N-[(5-oxopyrrolidin-2-yl)methyl]-5-{[2-(trifluoromethyl)pyridin-3-yl]methoxy}-2H-indazole-3-carboxamide]	1 to 20
Cc1ncsc1COc1ccc2nn(C)c(C(=O)NC3CCN(CC(F)(F)F)C3)c2c1 (stereo not drawn) [Cpd 057, 2-methyl-5-[(4-methyl-1,3-thiazol-5-yl)methoxy]-N-[1-(2,2,2-trifluoroethyl)pyrrolidin-3-yl]-2H-indazole-3-carboxamide]	1 to 20
Cn1nccc1COc1ccc2nn(C)c(C(=O)NC3(CO)CCOCC3)c2c1 [Cpd 058, N-[4-(hydroxymethyl)oxan-4-yl]-2-methyl-5-[(1-methyl-1H-pyrazol-5-yl)methoxy]-2H-indazole-3-carboxamide]	> 20
Cn1nccc1COc1ccc2nn(C)c(C(=O)NC3(C(N)=O)CCC3)c2c1 [Cpd 061, N-(1-carbamoylcyclobutyl)-2-methyl-5-[(1-methyl-1H-pyrazol-5-yl)methoxy]-2H-indazole-3-carboxamide]	1 to 20
Cc1ncsc1COc1ccc2nn(C)c(C(=O)NCC3CCC(=O)N3)c2c1 (stereo not drawn) [Cpd 063, 2-methyl-5-[(4-methyl-1,3-thiazol-5-yl)methoxy]-N-[(5-oxopyrrolidin-2-yl)methyl]-2H-indazole-3-carboxamide]	1 to 20
Cn1nc2ccc(OCc3cccnc3C(F)(F)F)cc2c1C(=O)NC1(CCO)CCC1 [Cpd 065, N-[1-(2-hydroxyethyl)cyclobutyl]-2-methyl-5-{[2-(trifluoromethyl)pyridin-3-yl]methoxy}-2H-indazole-3-carboxamide]	1 to 20
Cn1nc2ccc(OCc3cccnc3C(F)(F)F)cc2c1C(=O)NCC(C)(C)N1CCOCC1 [Cpd 068, 2-methyl-N-[2-methyl-2-(morpholin-4-yl)propyl]-5-{[2-(trifluoromethyl)pyridin-3-yl]methoxy}-2H-indazole-3-carboxamide]	1 to 20
Cc1ncsc1COc1ccc2nn(C)c(C(=O)NC3(C(N)=O)CCC3)c2c1 [Cpd 070, N-(1-carbamoylcyclobutyl)-2-methyl-5-[(4-methyl-1,3-thiazol-5-yl)methoxy]-2H-indazole-3-carboxamide]	< 1
Cc1ncsc1COc1ccc2nn(C)c(C(=O)NCC3(N(C)C)CCC3)c2c1 [Cpd 072, N-{[1-(dimethylamino)cyclobutyl]methyl}-2-methyl-5-[(4-methyl-1,3-thiazol-5-yl)methoxy]-2H-indazole-3-carboxamide]	1 to 20

Next, values leading:

IC50 [µM]	SMILES
> 20	Cc1ncsc1COc1ccc2nn(C)c(C(=O)NC3CCN(CCO)C3=O)c2c1 (stereo not drawn) [Cpd 037, N-[1-(2-hydroxyethyl)-2-oxopyrrolidin-3-yl]-2-methyl-5-[(4-methyl-1,3-thiazol-5-yl)methoxy]-2H-indazole-3-carboxamide]
1 to 20	Cn1nc2ccc(OCc3ccccc3)cc2c1C(=O)NC1CCN(CCO)C1=O (stereo not drawn) [Cpd 038, 5-(benzyloxy)-N-[1-(2-hydroxyethyl)-2-oxopyrrolidin-3-yl]-2-methyl-2H-indazole-3-carboxamide]
> 20	Cn1nccc1COc1ccc2nn(C)c(C(=O)NC3CCN(CCO)C3=O)c2c1 (stereo not drawn) [Cpd 039, N-[1-(2-hydroxyethyl)-2-oxopyrrolidin-3-yl]-2-methyl-5-[(1-methyl-1H-pyrazol-5-yl)methoxy]-2H-indazole-3-carboxamide]
1 to 20	CN1CCC(NC(=O)c2c3cc(OCc4cccnc4C(F)(F)F)ccc3nn2C)C1 (stereo not drawn) [Cpd 040, 2-methyl-N-(1-methylpyrrolidin-3-yl)-5-{[2-(trifluoromethyl)pyridin-3-yl]methoxy}-2H-indazole-3-carboxamide]
1 to 20	Cn1nc2ccc(OCc3ccccc3)cc2c1C(=O)NC1(C(N)=O)COC1 [Cpd 041, 5-(benzyloxy)-N-(3-carbamoyloxetan-3-yl)-2-methyl-2H-indazole-3-carboxamide]
1 to 20	Cn1nccc1COc1ccc2nn(C)c(C(=O)NC3(CO)CCC3)c2c1 [Cpd 044, N-[1-(hydroxymethyl)cyclobutyl]-2-methyl-5-[(1-methyl-1H-pyrazol-5-yl)methoxy]-2H-indazole-3-carboxamide]
> 20	Cn1nc2ccc(OCc3ccccc3)cc2c1C(=O)NCCN1CCOC1=O [Cpd 045, 5-(benzyloxy)-2-methyl-N-[2-(2-oxo-1,3-oxazolidin-3-yl)ethyl]-2H-indazole-3-carboxamide]
1 to 20	Cn1nc2ccc(OCc3ccccc3)cc2c1C(=O)NC1(CCO)CCC1 [Cpd 051, 5-(benzyloxy)-N-[1-(2-hydroxyethyl)cyclobutyl]-2-methyl-2H-indazole-3-carboxamide]
1 to 20	Cn1nccc1COc1ccc2nn(C)c(C(=O)NCCN3CCOC3=O)c2c1 [Cpd 055, 2-methyl-5-[(1-methyl-1H-pyrazol-5-yl)methoxy]-N-[2-(2-oxo-1,3-oxazolidin-3-yl)ethyl]-2H-indazole-3-carboxamide]
1 to 20	Cn1nc2ccc(OCc3ccccc3)cc2c1C(=O)NC1CCN(CC(F)(F)F)C1 (stereo not drawn) [Cpd 060, 5-(benzyloxy)-2-methyl-N-[1-(2,2,2-trifluoroethyl)pyrrolidin-3-yl]-2H-indazole-3-carboxamide]
> 20	Cn1nccc1COc1ccc2nn(C)c(C(=O)NC3CCNC3=O)c2c1 (stereo not drawn) [Cpd 062, 2-methyl-5-[(1-methyl-1H-pyrazol-5-yl)methoxy]-N-(2-oxopyrrolidin-3-yl)-2H-indazole-3-carboxamide]
1 to 20	Cc1ncsc1COc1ccc2nn(C)c(C(=O)NC3CCNC3=O)c2c1 (stereo not drawn) [Cpd 064, 2-methyl-5-[(4-methyl-1,3-thiazol-5-yl)methoxy]-N-(2-oxopyrrolidin-3-yl)-2H-indazole-3-carboxamide]
> 20	Cn1nc2ccc(OCc3ccccc3)cc2c1C(=O)NCC1CCC(=O)N1 (stereo not drawn) [Cpd 066, 5-(benzyloxy)-2-methyl-N-[(5-oxopyrrolidin-2-yl)methyl]-2H-indazole-3-carboxamide]
> 20	Cn1nccc1COc1ccc2nn(C)c(C(=O)NC3(CO)CC3)c2c1 [Cpd 067, N-[1-(hydroxymethyl)cyclopropyl]-2-methyl-5-[(1-methyl-1H-pyrazol-5-yl)methoxy]-2H-indazole-3-carboxamide]
> 20	Cn1nccc1COc1ccc2nn(C)c(C(=O)NCC3CCC(=O)N3)c2c1 (stereo not drawn) [Cpd 069, 2-methyl-5-[(1-methyl-1H-pyrazol-5-yl)methoxy]-N-[(5-oxopyrrolidin-2-yl)methyl]-2H-indazole-3-carboxamide]
1 to 20	CN1CCC(NC(=O)c2c3cc(OCc4ccnn4C)ccc3nn2C)C1 (stereo not drawn) [Cpd 071, 2-methyl-5-[(1-methyl-1H-pyrazol-5-yl)methoxy]-N-(1-methylpyrrolidin-3-yl)-2H-indazole-3-carboxamide]
1 to 20	Cn1nc2ccc(OCc3cccnc3C(F)(F)F)cc2c1C(=O)NCCN1CCOC1=O [Cpd 073, 2-methyl-N-[2-(2-oxo-1,3-oxazolidin-3-yl)ethyl]-5-{[2-(trifluoromethyl)pyridin-3-yl]methoxy}-2H-indazole-3-carboxamide]
1 to 20	Cn1nc2ccc(OCc3ccccc3)cc2c1C(=O)NC1(CO)CCOCC1 [Cpd 074, 5-(benzyloxy)-N-[4-(hydroxymethyl)oxan-4-yl]-2-methyl-2H-indazole-3-carboxamide]
1 to 20	Cc1ncsc1COc1ccc2nn(C)c(C(=O)NC3CCN(C)C3)c2c1 (stereo not drawn) [Cpd 075, 2-methyl-5-[(4-methyl-1,3-thiazol-5-yl)methoxy]-N-(1-methylpyrrolidin-3-yl)-2H-indazole-3-carboxamide]
